Measured values as given in PMC8416343, “A Facile Procedure for One-Pot Stable Conjugation of Two Proglucagon Cysteine-Containing Peptide Analogs” (Frontiers in Endocrinology, 2021).

What was measured:
human GcgR = target: T1, human GcgR (Homo sapiens, UniProt P47871); experiment: Glucagon receptor activation, cAMP response element-luciferase reporter in BHK cells; format: cell-based; conditions: for Statistical significance of EC50 difference at human glucagon receptor: between peptide 4 and peptide 5, Student's unpaired t-test, n=6; for EC50: stably transfected BHK cells over-expressing human GcgR, CRE-luciferase, 3 h at 37°C, assay buffer with 1% ovalbumin, 12-point 3.5-fold dilution, n=6, kind of +/- not stated
T1 construct: expressed in transfected cells; host or cells: BHK cells (stably transfected, with CRE-firefly luciferase reporter)
Experimental: (§1) Receptor activation data was collected utilizing stably transfected BHK cells over-expressing either the human GLP-1R or GcgR and firefly luciferase reporter gene linked to the cAMP response element. The cells were maintained in continuous culture in DMEM supplemented with 10% HI FBS, 300 ug/mL hygromycin, and 500 ug/mL G418 at 37°C with 5% CO2. Cells were plated in the supplemented DMEM at 5,000 cells per well in 96 well poly-D-Lysine coated Corning BioCoat plates and incubated overnight at 37°C with 5% CO2. After the overnight incubation, the media was removed from the cell plates, washed once with DPBS, and 50uL of the assay buffer (DMEM without phenol red, 10 mM Hepes, 1x Glutamax, 1% ovalbumin, and 0.1% Pluronic F-68) was added to the plate. In a separate 96 well plate, the test compounds were serially diluted by 3.5-fold across the row of the plate to create a 12-point dilution curve. […] After the incubation, the assay plates were washed once in DPBS. Following the wash, 100 uL of DPBS was added to each well of the plates followed by 100 uL of the steadylite plus reagent (PerkinElmer). The assay plates were covered to protect from light, incubated at room temperature with shaking at 250 rpm for 30 minutes and read using a microtiter plate reader. The data was plotted using GraphPad Prism 9.0.1 with the nonlinear regression log(agonist) vs. response analysis to obtain the EC50 for each compound. Additionally, GraphPad Prism was used to complete the statistical analysis of the EC50 values with n=6 was using the Student’s unpaired t-test analysis.

[1] = pH 9.6
human GLP-1R = target: T2, human GLP-1R (Homo sapiens, UniProt P43220); experiment: GLP-1 receptor activation, cAMP response element-luciferase reporter in BHK cells; format: cell-based; conditions: for Statistical significance of EC50 difference at human GLP-1 receptor: between human GLP-1, peptide 4 and peptide 5, Student's unpaired t-test, n=6; for EC50: stably transfected BHK cells over-expressing human GLP-1R, CRE-luciferase, 3 h at 37°C, assay buffer with 1% ovalbumin, 12-point 3.5-fold dilution, n=6, kind of +/- not stated
T2 construct: expressed in transfected cells; host or cells: BHK cells (stably transfected, with CRE-firefly luciferase reporter)
Experimental: as §1

[2] = Hydrolysis of thiosuccinimide / chemical stability of linker and conjugates, LC-MS; conditions: for Time to complete hydrolysis of thiosuccinimide: pH 9.6, carbonate-diluted reaction mixture, LC-MS
[3] = tested on: human GLP-1 and glucagon receptors; experiment: Glucagon and GLP-1 receptor activation, both receptors together (summary statements); format: cell-based; conditions: heterodimers of glucagon and GLP-1 analogs; conclusion
Experimental: as §1, with “The data was plotted using GraphPad Prism 9.0.1 with the nonlinear regression log(agonist) vs. response analysis to obtain the EC50 for each compound. Additionally, GraphPad Prism was used to complete the statistical analysis of the EC50 values with n=6 was using the Student’s unpaired t-test analysis.” left out

T2 sequence (P43220 24-463): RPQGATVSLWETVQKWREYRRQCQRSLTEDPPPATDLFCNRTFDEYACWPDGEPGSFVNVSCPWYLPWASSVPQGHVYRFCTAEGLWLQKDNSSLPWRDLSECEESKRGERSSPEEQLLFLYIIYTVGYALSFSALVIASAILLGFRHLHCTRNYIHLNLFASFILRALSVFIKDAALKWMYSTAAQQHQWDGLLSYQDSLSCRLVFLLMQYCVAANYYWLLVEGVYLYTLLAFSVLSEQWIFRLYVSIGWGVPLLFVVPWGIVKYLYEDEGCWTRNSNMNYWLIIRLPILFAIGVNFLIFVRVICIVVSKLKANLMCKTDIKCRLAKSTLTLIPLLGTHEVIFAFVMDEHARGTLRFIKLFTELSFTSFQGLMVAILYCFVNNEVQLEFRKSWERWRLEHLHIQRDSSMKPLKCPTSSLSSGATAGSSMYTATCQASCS
T1 sequence (P47871 26-477): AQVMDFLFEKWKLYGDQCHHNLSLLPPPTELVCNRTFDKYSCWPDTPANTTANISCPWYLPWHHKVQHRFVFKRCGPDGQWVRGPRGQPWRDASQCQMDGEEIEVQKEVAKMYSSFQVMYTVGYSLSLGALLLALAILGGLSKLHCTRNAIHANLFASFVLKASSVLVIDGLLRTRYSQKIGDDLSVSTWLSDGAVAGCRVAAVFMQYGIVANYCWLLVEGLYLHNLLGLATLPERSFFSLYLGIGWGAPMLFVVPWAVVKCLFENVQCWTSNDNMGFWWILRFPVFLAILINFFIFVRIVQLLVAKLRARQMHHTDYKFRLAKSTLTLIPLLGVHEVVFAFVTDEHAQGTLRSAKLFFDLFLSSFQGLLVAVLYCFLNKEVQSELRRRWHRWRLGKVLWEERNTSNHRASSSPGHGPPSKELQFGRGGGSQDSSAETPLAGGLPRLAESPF

SMILES	Statistical significance of EC50 difference at human glucagon receptor (human GcgR)	EC50 (human GcgR) [nM]	Degradation of the conjugate during hydrolysis [1]	Statistical significance of EC50 difference at human GLP-1 receptor (human GLP-1R)	EC50 (human GLP-1R) [nM]	Stability of linker ([2]; pH range of 6.0-8.3, compared with the self-hydrolysable maleimido linker)	Potency at human GCG receptor, in words (human GcgR; BHK cells, human GcgR, reduced versus native human glucagon, comparable between peptides 4 and 5)	Potency in stimulating cAMP at GLP-1 receptors, in words (human GLP-1R; compared with native GLP-1, BHK cells, human GLP-1R)	GLP-1 receptor activity relative to glucagon [3]	Thiosuccinimide hydrolysis at pH 8.3 ([2]; pH 8.3, prolonged alkylation time)	Time to complete hydrolysis of thiosuccinimide ([2]; 37°C) [h]	Time to complete hydrolysis of thiosuccinimide ([2]; room temperature)
CC[C@H](C)[C@H](NC(=O)[C@H](Cc1ccccc1)NC(=O)[C@H](CCC(=O)O)NC(=O)[C@H](CCCCN)NC(=O)[C@H](C)NC(=O)[C@H](C)NC(=O)[C@H](CCC(N)=O)NC(=O)[C@H](CCC(=O)O)NC(=O)[C@H](CCC(=O)O)NC(=O)[C@H](CC(C)C)NC(=O)[C@H](Cc1ccc(O)cc1)NC(=O)[C@H](CO)NC(=O)[C@H](CO)NC(=O)[C@@H](NC(=O)[C@H](CC(=O)O)NC(=O)[C@H](CO)NC(=O)[C@@H](NC(=O)[C@H](Cc1ccccc1)NC(=O)[C@@H](NC(=O)CNC(=O)[C@H](CCC(=O)O)NC(=O)C(C)(C)NC(=O)[C@@H](N)Cc1c[nH]cn1)[C@@H](C)O)[C@@H](C)O)C(C)C)C(=O)N[C@@H](C)C(=O)N[C@@H](Cc1c[nH]c2ccccc12)C(=O)N[C@@H](CC(C)C)C(=O)N[C@H](C(=O)N[C@@H](CCCCN)C(=O)NCC(=O)NCC(=O)N1CCC[C@H]1C(=O)N[C@@H](CO)C(=O)N[C@@H](CO)C(=O)NCC(=O)N[C@@H](C)C(=O)N1CCC[C@H]1C(=O)N1CCC[C@H]1C(=O)N1CCC[C@H]1C(=O)N[C@@H](CO)C(=O)N[C@@H](CSCC(=O)NCCNC(=O)C(CC(=O)O)SC[C@H](NC(=O)[C@H](CO)NC(=O)[C@@H]1CCCN1C(=O)[C@@H]1CCCN1C(=O)[C@@H]1CCCN1C(=O)[C@H](C)NC(=O)CNC(=O)[C@H](CO)NC(=O)[C@H](CO)NC(=O)[C@@H]1CCCN1C(=O)CNC(=O)CNC(=O)[C@H](CC(N)=O)NC(=O)[C@H](CCSC)NC(=O)[C@H](CC(C)C)NC(=O)[C@H](Cc1c[nH]c2ccccc12)NC(=O)[C@H](CCC(N)=O)NC(=O)[C@@H](NC(=O)[C@H](Cc1ccccc1)NC(=O)[C@H](CC(=O)O)NC(=O)[C@H](CCC(N)=O)NC(=O)[C@H](C)NC(=O)[C@H](CCCNC(=N)N)NC(=O)[C@H](CCCNC(=N)N)NC(=O)[C@H](CO)NC(=O)[C@H](CC(=O)O)NC(=O)[C@H](CC(C)C)NC(=O)[C@H](Cc1ccc(O)cc1)NC(=O)[C@H](CCCCN)NC(=O)[C@H](CO)NC(=O)[C@H](Cc1ccc(O)cc1)NC(=O)[C@H](CC(=O)O)NC(=O)[C@H](CO)NC(=O)[C@@H](NC(=O)[C@H](Cc1ccccc1)NC(=O)[C@@H](NC(=O)CNC(=O)[C@H](CCC(N)=O)NC(=O)[C@H](CO)NC(=O)[C@@H](N)Cc1c[nH]cn1)[C@@H](C)O)[C@@H](C)O)C(C)C)C(N)=O)C(N)=O)C(C)C (stereo partly shown) [Peptide 5]	no statistical significance	0.323 ± 0.187	without detectable degradation	no statistical significance	0.00485 ± 0.00429							
O=C(CI)NCCN1C(=O)C=CC1=O [Linker 1, N-(2-(2,5-dioxo-2,5-dihydro-1H-pyrrol-1-yl)ethyl)-2-iodoacetamide]						enhanced stability						
CC[C@H](C)[C@H](NC(=O)[C@H](Cc1ccccc1)NC(=O)[C@H](CCC(=O)O)NC(=O)[C@H](CCCCN)NC(=O)[C@H](C)NC(=O)[C@H](C)NC(=O)[C@H](CCC(N)=O)NC(=O)[C@H](CCC(=O)O)NC(=O)[C@H](CCC(=O)O)NC(=O)[C@H](CC(C)C)NC(=O)[C@H](Cc1ccc(O)cc1)NC(=O)[C@H](CO)NC(=O)[C@H](CO)NC(=O)[C@@H](NC(=O)[C@H](CC(=O)O)NC(=O)[C@H](CO)NC(=O)[C@@H](NC(=O)[C@H](Cc1ccccc1)NC(=O)[C@@H](NC(=O)CNC(=O)[C@H](CCC(=O)O)NC(=O)C(C)(C)NC(=O)[C@@H](N)Cc1c[nH]cn1)[C@@H](C)O)[C@@H](C)O)C(C)C)C(=O)N[C@@H](C)C(=O)N[C@@H](Cc1c[nH]c2ccccc12)C(=O)N[C@@H](CC(C)C)C(=O)N[C@H](C(=O)N[C@@H](CCCCN)C(=O)NCC(=O)NCC(=O)N1CCC[C@H]1C(=O)N[C@@H](CO)C(=O)N[C@@H](CO)C(=O)NCC(=O)N[C@@H](C)C(=O)N1CCC[C@H]1C(=O)N1CCC[C@H]1C(=O)N1CCC[C@H]1C(=O)N[C@@H](CO)C(=O)N[C@@H](CSCC(=O)NCCN1C(=O)CC(SC[C@H](NC(=O)[C@H](CO)NC(=O)[C@@H]2CCCN2C(=O)[C@@H]2CCCN2C(=O)[C@@H]2CCCN2C(=O)[C@H](C)NC(=O)CNC(=O)[C@H](CO)NC(=O)[C@H](CO)NC(=O)[C@@H]2CCCN2C(=O)CNC(=O)CNC(=O)[C@H](CC(N)=O)NC(=O)[C@H](CCSC)NC(=O)[C@H](CC(C)C)NC(=O)[C@H](Cc2c[nH]c3ccccc23)NC(=O)[C@H](CCC(N)=O)NC(=O)[C@@H](NC(=O)[C@H](Cc2ccccc2)NC(=O)[C@H](CC(=O)O)NC(=O)[C@H](CCC(N)=O)NC(=O)[C@H](C)NC(=O)[C@H](CCCNC(=N)N)NC(=O)[C@H](CCCNC(=N)N)NC(=O)[C@H](CO)NC(=O)[C@H](CC(=O)O)NC(=O)[C@H](CC(C)C)NC(=O)[C@H](Cc2ccc(O)cc2)NC(=O)[C@H](CCCCN)NC(=O)[C@H](CO)NC(=O)[C@H](Cc2ccc(O)cc2)NC(=O)[C@H](CC(=O)O)NC(=O)[C@H](CO)NC(=O)[C@@H](NC(=O)[C@H](Cc2ccccc2)NC(=O)[C@@H](NC(=O)CNC(=O)[C@H](CCC(N)=O)NC(=O)[C@H](CO)NC(=O)[C@@H](N)Cc2c[nH]cn2)[C@@H](C)O)[C@@H](C)O)C(C)C)C(N)=O)C1=O)C(N)=O)C(C)C (stereo partly shown) [Peptide 4]	no statistical significance	0.607 ± 0.428		no statistical significance	0.00468 ± 0.00153		reduced but comparable potency	comparable potency to native GLP-1	much enhanced GLP-1 receptor activity relative to glucagon	did not result in sufficient thiosuccinimide hydrolysis	≤ 1	approximately 12 hours
